Results reported in ChEMBL document CHEMBL5512609, “HDAC-targeting epigenetic modulators for cancer immunotherapy” (Eur J Med Chem, 2024).

Legend:
[1] = molecular target: Programmed cell death protein 1/Programmed cell death 1 ligand 1 (Homo sapiens, UniProt Q15116+Q9NZQ7); test: Inhibition of PD-1/PDL1 interaction (unknown origin) in by HTRF assay; format: protein-complex assay
[2] = molecular target: T1, Protein cereblon/Protein deacetylase HDAC6 (Homo sapiens, UniProt Q9UBN7+Q96SW2); test: PROTAC activity at CRBN/HDAC6 in human MINO cells assessed as HDAC6 degradation incubated for 18 hrs by immunoblot analysis; format: cell-based
Target sequence in this assay (Q9UBN7 whole entry): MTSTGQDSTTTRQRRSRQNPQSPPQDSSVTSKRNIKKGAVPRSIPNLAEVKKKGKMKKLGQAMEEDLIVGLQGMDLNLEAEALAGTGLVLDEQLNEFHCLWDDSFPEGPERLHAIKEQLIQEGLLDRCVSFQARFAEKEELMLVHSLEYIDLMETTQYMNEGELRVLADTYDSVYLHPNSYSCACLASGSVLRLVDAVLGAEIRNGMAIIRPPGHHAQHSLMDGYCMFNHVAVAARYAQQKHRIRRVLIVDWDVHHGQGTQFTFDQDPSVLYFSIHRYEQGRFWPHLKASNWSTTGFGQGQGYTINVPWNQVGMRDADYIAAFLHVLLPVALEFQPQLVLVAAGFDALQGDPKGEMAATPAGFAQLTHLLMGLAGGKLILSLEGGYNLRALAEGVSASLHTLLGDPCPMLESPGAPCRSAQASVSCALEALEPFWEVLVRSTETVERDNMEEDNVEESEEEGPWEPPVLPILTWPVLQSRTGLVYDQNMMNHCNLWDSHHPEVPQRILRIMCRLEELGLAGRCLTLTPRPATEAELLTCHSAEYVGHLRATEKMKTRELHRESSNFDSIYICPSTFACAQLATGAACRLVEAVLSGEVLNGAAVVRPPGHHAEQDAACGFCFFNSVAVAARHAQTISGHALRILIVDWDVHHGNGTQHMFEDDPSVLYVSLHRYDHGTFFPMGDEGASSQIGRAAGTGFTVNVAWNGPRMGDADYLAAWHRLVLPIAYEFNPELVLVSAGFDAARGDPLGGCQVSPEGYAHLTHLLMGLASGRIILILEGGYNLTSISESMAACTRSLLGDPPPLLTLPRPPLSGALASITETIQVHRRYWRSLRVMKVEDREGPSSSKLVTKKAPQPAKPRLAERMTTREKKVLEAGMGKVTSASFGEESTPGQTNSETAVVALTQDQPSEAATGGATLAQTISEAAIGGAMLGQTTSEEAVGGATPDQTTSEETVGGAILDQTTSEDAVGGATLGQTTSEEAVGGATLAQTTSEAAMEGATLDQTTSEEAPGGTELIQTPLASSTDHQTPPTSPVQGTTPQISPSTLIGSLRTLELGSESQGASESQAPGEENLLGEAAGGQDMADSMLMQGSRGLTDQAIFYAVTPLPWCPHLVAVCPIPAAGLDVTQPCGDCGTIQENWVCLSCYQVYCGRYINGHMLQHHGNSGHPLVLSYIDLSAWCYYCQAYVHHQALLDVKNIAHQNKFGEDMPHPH
Target sequence in this assay (Q96SW2 whole entry): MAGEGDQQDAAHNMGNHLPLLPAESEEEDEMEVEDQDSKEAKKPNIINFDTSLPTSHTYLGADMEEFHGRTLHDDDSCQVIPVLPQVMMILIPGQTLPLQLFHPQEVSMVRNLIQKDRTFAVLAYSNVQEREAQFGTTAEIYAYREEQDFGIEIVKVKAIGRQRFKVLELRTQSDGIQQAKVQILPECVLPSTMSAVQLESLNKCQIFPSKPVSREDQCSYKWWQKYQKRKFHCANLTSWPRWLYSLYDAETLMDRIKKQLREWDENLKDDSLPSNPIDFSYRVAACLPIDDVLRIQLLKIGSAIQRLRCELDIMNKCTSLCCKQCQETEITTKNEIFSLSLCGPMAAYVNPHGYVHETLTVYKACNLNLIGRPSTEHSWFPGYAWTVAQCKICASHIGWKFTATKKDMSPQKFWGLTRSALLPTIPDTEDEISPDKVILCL

[3] = molecular target: T1, Protein cereblon/Protein deacetylase HDAC6; test: PROTAC activity at CRBN/HDAC6 in human JeKo-1 cells assessed as HDAC6 degradation incubated for 18 hrs by immunoblot analysis; format: cell-based
Target sequence in this assay (Q9UBN7 whole entry): as the sequence (Q9UBN7 whole entry) above
Target sequence in this assay (Q96SW2 whole entry): as the sequence (Q96SW2 whole entry) above

[4] = molecular target: T1, Protein cereblon/Protein deacetylase HDAC6; test: PROTAC activity at CRBN/HDAC6 in human HUVEC cells assessed as HDAC6 degradation incubated for 18 hrs by immunoblot analysis; format: cell-based
Target sequence in this assay (Q9UBN7 whole entry): as the sequence (Q9UBN7 whole entry) above
Target sequence in this assay (Q96SW2 whole entry): as the sequence (Q96SW2 whole entry) above

[5] = molecular target: T1, Protein cereblon/Protein deacetylase HDAC6; test: PROTAC activity at CRBN/HDAC6 in human MDA-MB-231 cells assessed as HDAC6 degradation incubated for 18 hrs by immunoblot analysis; format: cell-based
Target sequence in this assay (Q9UBN7 whole entry): as the sequence (Q9UBN7 whole entry) above
Target sequence in this assay (Q96SW2 whole entry): as the sequence (Q96SW2 whole entry) above

[6] = molecular target: T1, Protein cereblon/Protein deacetylase HDAC6; test: PROTAC activity at CRBN/HDAC6 in human MM1.S cells assessed as HDAC6 degradation incubated for 18 hrs by immunoblot analysis; format: cell-based
Target sequence in this assay (Q9UBN7 whole entry): as the sequence (Q9UBN7 whole entry) above
Target sequence in this assay (Q96SW2 whole entry): as the sequence (Q96SW2 whole entry) above

[7] = molecular target: T1, Protein cereblon/Protein deacetylase HDAC6; test: PROTAC activity at CRBN/HDAC6 in human MM1.S cells assessed as HDAC6 degradation by measuring maximum efficacy incubated for 18 hrs by immunoblot analysis relative to control; format: cell-based
Target sequence in this assay (Q96SW2 whole entry, looked up): as the sequence (Q96SW2 whole entry) above
Target sequence in this assay (Q9UBN7 whole entry, looked up): as the sequence (Q9UBN7 whole entry) above

[8] = molecular target: Protein cereblon/Histone deacetylase 8 (Homo sapiens, UniProt Q9BY41+Q96SW2); test: PROTAC activity at CRBN/HDAC8 in human Jurkat T cells assessed as induction of degradation of HDAC8 by Western blot analysis; format: cell-based
[9] = Inhibition of LSD1/HDAC1/CoREST complex (unknown origin) using Boc-(Ac)Lys-AMC as substrate measured after 20 mins by fluorescence based analysis; set-up: species or system Homo sapiens
[10] = Inhibition of LSD1/HDAC2/CoREST complex (unknown origin) using Boc-(Ac)Lys-AMC as substrate measured after 20 mins by fluorescence based analysis; set-up: species or system Homo sapiens
[11] = Inhibition of LSD1/HDAC3/CoREST complex (unknown origin) using Boc-(Ac)Lys-AMC as substrate measured after 20 mins by fluorescence based analysis; set-up: species or system Homo sapiens
[12] = molecular target: T2, von Hippel-Lindau disease tumor suppressor/Histone deacetylase 1 (Homo sapiens, UniProt Q13547+P40337); test: PROTAC activity at VHL/HDAC1 in human HCT-116 cells assessed as degradation of HDAC1 incubated for 24 hrs by Western blot analysis; format: cell-based
[13] = molecular target: T3, von Hippel-Lindau disease tumor suppressor/Histone deacetylase 2 (Homo sapiens, UniProt Q92769+P40337); test: PROTAC activity at VHL/HDAC2 in human HCT-116 cells assessed as degradation of HDAC2 incubated for 24 hrs by Western blot analysis; format: cell-based
[14] = molecular target: T4, von Hippel-Lindau disease tumor suppressor/Histone deacetylase 3 (Homo sapiens, UniProt O15379+P40337); test: PROTAC activity at VHL/HDAC3 in human HCT-116 cells assessed as degradation of HDAC3 incubated for 24 hrs by Western blot analysis; format: cell-based
[15] = molecular target: T2, von Hippel-Lindau disease tumor suppressor/Histone deacetylase 1; test: PROTAC activity at VHL/HDAC1 in human HCT-116 cells assessed as degradation of HDAC1 incubated for 24 hrs by immunoblot analysis; format: cell-based
[16] = molecular target: T2, von Hippel-Lindau disease tumor suppressor/Histone deacetylase 1; test: PROTAC activity at VHL/HDAC1 in human HCT-116 cells assessed as degradation of HDAC1 by measuring maximum efficacy incubated for 24 hrs by immunoblot analysis relative to control; format: cell-based
[17] = molecular target: T3, von Hippel-Lindau disease tumor suppressor/Histone deacetylase 2; test: PROTAC activity at VHL/HDAC2 in human HCT-116 cells assessed as degradation of HDAC2 by measuring maximum efficacy incubated for 24 hrs by immunoblot analysis relative to control; format: cell-based
[18] = molecular target: T4, von Hippel-Lindau disease tumor suppressor/Histone deacetylase 3; test: Protac activity at VHL/HDAC3 in human MDA-MB-468 cells assessed as HDAC3 degradation measured after 14 hrs by Western blot analysis; format: cell-based
[19] = tested on: MDA-MB-468; test: Antiproliferative activity against human MDA-MB-468 cells; format: functional, cell-based
[20] = molecular target: T1, Protein cereblon/Protein deacetylase HDAC6; test: PROTAC activity at CRBN/HDAC6 in human MM1.S cells assessed as induction of degradation of HDAC6; format: cell-based
Target sequence in this assay (Q9UBN7 whole entry): as above
Target sequence in this assay (Q96SW2 whole entry): as the sequence (Q96SW2 whole entry) above

[21] = molecular target: T1, Protein cereblon/Protein deacetylase HDAC6; test: PROTAC activity at CRBN/HDAC6 in human MM1.S cells assessed as induction of degradation of HDAC6 by measuring maximum efficacy relative to control; format: cell-based
Target sequence in this assay (Q96SW2 whole entry, looked up): as the sequence (Q96SW2 whole entry) above
Target sequence in this assay (Q9UBN7 whole entry, looked up): as the sequence (Q9UBN7 whole entry) above

[22] = molecular target: T1, Protein cereblon/Protein deacetylase HDAC6; test: PROTAC activity at CRBN/HDAC6 in human MM1.S cells assessed as HDAC6 degradation; format: cell-based
[23] = molecular target: T1, Protein cereblon/Protein deacetylase HDAC6; test: PROTAC activity at CRBN/HDAC6 in human HL-60 cells assessed as HDAC6 degradation; format: cell-based
[24] = molecular target: T1, Protein cereblon/Protein deacetylase HDAC6; test: PROTAC activity at CRBN/HDAC6 in human HL-60 cells assessed as HDAC6 degradation by measuring maximum efficacy relative to control; format: cell-based
Target sequence in this assay (Q96SW2 whole entry, looked up): as the sequence (Q96SW2 whole entry) above
Target sequence in this assay (Q9UBN7 whole entry, looked up): as the sequence (Q9UBN7 whole entry) above

Sequence of Programmed cell death protein 1/Programmed cell death 1 ligand 1 (Q15116 whole entry): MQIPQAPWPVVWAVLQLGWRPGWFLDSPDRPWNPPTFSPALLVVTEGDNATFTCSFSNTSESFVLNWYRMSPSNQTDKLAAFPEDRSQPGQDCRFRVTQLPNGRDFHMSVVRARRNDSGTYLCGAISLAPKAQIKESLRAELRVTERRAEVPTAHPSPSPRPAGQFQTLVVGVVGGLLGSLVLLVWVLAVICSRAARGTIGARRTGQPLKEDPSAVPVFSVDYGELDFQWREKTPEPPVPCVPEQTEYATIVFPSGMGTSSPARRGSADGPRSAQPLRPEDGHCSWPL
Sequence of Programmed cell death protein 1/Programmed cell death 1 ligand 1 (Q9NZQ7 whole entry): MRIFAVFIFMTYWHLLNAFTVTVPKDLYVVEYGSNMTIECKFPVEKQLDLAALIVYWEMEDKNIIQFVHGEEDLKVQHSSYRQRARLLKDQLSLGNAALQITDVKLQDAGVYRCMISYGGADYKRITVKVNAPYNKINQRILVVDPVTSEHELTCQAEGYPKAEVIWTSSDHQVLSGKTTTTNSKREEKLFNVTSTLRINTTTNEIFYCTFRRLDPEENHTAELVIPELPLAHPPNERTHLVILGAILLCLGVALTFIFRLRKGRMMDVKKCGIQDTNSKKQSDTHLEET

Cc1c(COc2ccc(CNCCCCCC(=O)NO)c(F)c2)cccc1-c1ccccc1
IC50 [1]: 62 nM

CCCCN(Cc1ccc(C(=O)NO)cc1)C(=O)Nc1ccc(OCCCCCCCn2cc(CCCCCNc3cccc4c3C(=O)N(C3CCC(=O)NC3=O)C4=O)nn2)cc1 (stereo not drawn)
DC50 [2]: 3.2 nM
DC50 [3]: 3.2 nM
DC50 [4]: 3.2 nM
DC50 [5]: 3.2 nM
DC50 [6]: 1.6 nM
Emax [7]: 86%

COc1cc(C(=O)NO)ccc1NCc1ccc(OCc2cn(CCCCCC(=O)Nc3cccc4c3C(=O)N(C3CCC(=O)NC3=O)C4=O)nn2)cc1 (stereo not drawn)
DC50 [8]: 250 nM

Cc1c(COc2ccc(CNCCC(=O)NO)c(F)c2)cccc1-c1ccccc1
IC50 [1]: 120 nM

COc1cc(OCc2cccc(-c3ccccc3)c2C)cc(OC)c1CN(C)CCCC(=O)NO
IC50 [1]: 104 nM

Cc1ncsc1-c1ccc(CNC(=O)[C@H]2C[C@H](O)CN2C(=O)[C@H](NC(=O)CCCCCCCCCCC(=O)Nc2ccc(C(=O)Nc3ccccc3N)cc2)C(C)(C)C)cc1
IC50 [9]: 16800 nM
IC50 [10]: 16800 nM
IC50 [11]: 16800 nM
DC50 [12]: 1000 nM
DC50 [13]: 1000 nM
DC50 [14]: 1000 nM

COc1cc(OCc2cccc(-c3ccccc3)c2C)cc(OC)c1CNCCCCCCC(=O)NO
IC50 [1]: 85 nM

Cc1c(COc2ccc(CNCCC(=O)NO)c(OCc3cccc(C#N)c3)c2)cccc1-c1ccccc1
IC50 [1]: 82 nM

Cc1ncsc1-c1ccc(CNC(=O)[C@H]2C[C@H](O)CN2C(=O)[C@H](NC(=O)CCn2cc(CCCOC(=O)NCc3ccc(C(=O)Nc4ccc(F)cc4N)cc3)nn2)C(C)(C)C)cc1
DC50 [15]: 2840 nM
Emax [16]: 62%
Emax [17]: 62%

CCCNNC(=O)c1ccc(-c2ccc(NC(=O)CCCCCCC(=O)N[C@H](C(=O)N3C[C@H](O)C[C@H]3C(=O)N[C@H](C)c3ccc(-c4scnc4C)cc3)C(C)(C)C)cc2)cc1
DC50 [18]: 42 nM
IC50 [19]: 52 nM

CCCCN(Cc1ccc(C(=O)NO)cc1)C(=O)Nc1ccc(NC(=O)CCCCCc2cn(CCOCCNc3cccc4c3C(=O)N(C3CCC(=O)NC3=O)C4=O)nn2)cc1 (stereo not drawn)
DC50 [20]: 1.6 nM
Emax [21]: 86%

Cc1nc2cc(NC(=O)CCCCCCCNC(=O)COc3cccc4c3C(=O)N(C3CCC(=O)NC3=O)C4=O)ccc2n1Cc1ccc(C(=O)NO)cc1F (stereo not drawn)
DC50 [22]: 3.8 nM
DC50 [23]: 19.4 nM
Emax [24]: 92.2%
